What was measured:
[1] = test system: patients with T2D and documented moderate renal insufficiency (CKD 3A, 3B); assay: Multicentre, double-blind, placebo-controlled clinical study of sotagliflozin 200 mg and 400 mg once daily; HbA1c change at Week 26; type: in vivo; conditions: for HbA1c (%) Change from baseline to Week 26 LS Mean difference (SE) vs. placebo / HbA1c (%) Change from baseline to Week 26 LS Mean (SE) / HbA1c (%) Week 26 Mean (SD) / HbA1c (%) Week 26 Median: overall ITT population; for HbA1c (%) Change from baseline to Week 26 LS Mean (SE): ANCOVA, multiple imputation; for LS mean change in HbA1c from baseline to W26 / mean HbA1c level reached at W26: sotagliflozin 400 mg
Method: The efficacy, relative to a placebo, […], was evaluated in multicentre, double-blind clinical with random distribution in three groups of treatment (group treated with sotagliflozin 200 mg daily dose, group treated with sotagliflozin 400 mg daily dose, and group treated with a placebo) of patients. The selected patients were adult patients with T2D (drug-naïve or on antidiabetic therapy) and documented moderate renal insufficiency defined by an eGFR (based on the 4 variable Modification of Diet in Renal Disease [MDRD] equation) of ≥30 and <60 mL/min/1.73 m^2 (CKD 3A, 3B). The study was conducted as follows: • Screening Phase—Visit 1 (up to 2 weeks) • Run-in phase (Visit 2), lasted 2 weeks. Patients were treated in a single-blind manner with two placebo tablets (identical to sotagliflozin 200 mg in appearance) administered once daily during the Run-in phase, starting from Visit 2 • Double-blind Treatment Period (Day 1 to Week 26): Eligible patients will be randomized on Day 1 (Visit 3). Following randomization, patients will be treated in a double-blind manner for 52 weeks. A total of 787 patients ≥18 years of age (or ≥legal age of the majority, whichever is greater) were randomly assigned 1:1:1 to the following 3 treatment groups: • Placebo, given as two (2) placebo tablets (identical to sotagliflozin 200 mg in appearance), once daily, before the first meal of the day • Sotagliflozin 200 mg, given as 2 tablets: 1 sotagliflozin 200 mg tablet and 1 placebo tablet (identical to sotagliflozin 200 mg in appearance), once daily • Sotagliflozin 400 mg, given as two (2) 200 mg tablets, once daily, before the first meal of the day. • Double-blind Extension Period (Week 27 to Week 52): • Follow-up Period Following the last dose of the IMP: a 4 week post-treatment visit to collect safety and some efficacy information. […] Efficacy analysis was based on the intent-to-treat (ITT) population using efficacy assessments obtained during the study, including those obtained after investigational medicinal product (IMP) discontinuation or introduction of rescue therapy. The ITT population consisted of all randomized patients. The primary efficacy endpoint was analyzed using an analysis of covariance (ANCOVA) model. The ANCOVA model included treatment groups (sotagliflozin 200 mg, sotagliflozin 400 mg, placebo), randomization stratum of HbA1c (≤8.5%, >8.5%), randomization stratum of SBP (<130, ≥130 mmHg), randomization stratum of CKD stage (3A, 3B), and country as fixed effects, and baseline HbA1c value as a covariate.

[2] = test system: patients with type 2 diabetes; conditions: phase II trials; cited from earlier work
[3] = sotagliflozin 200 mg once daily
[4] = sotagliflozin 400 mg once daily
[5] = sotagliflozin 400 mg once daily, listed as sotagliflozin

CCOc1ccc(Cc2cc([C@@H]3O[C@H](SC)[C@@H](O)[C@H](O)[C@H]3O)ccc2Cl)cc1 [Sotagliflozin, sotagliflozin]
HbA1c (%) Change from baseline to Week 26 LS Mean difference (SE) vs. placebo ([1]; sotagliflozin 200 mg once daily, 95% CI (−0.244, 0.054), p-value 0.2129): −0.09 (0.076) %
HbA1c (%) Change from baseline to Week 26 LS Mean (SE) [1, 3]: −0.32 (0.060) %
HbA1c (%) Week 26 Mean (SD) [1, 3]: 7.82 (0.99) %
HbA1c (%) Week 26 Median [1, 3]: 7.70%
HbA1c (%) Change from baseline to Week 26 LS Mean difference (SE) vs. placebo ([1]; sotagliflozin 400 mg once daily, 95% CI (−0.382, −0.082), p-value 0.0024): −0.23 (0.076) %
HbA1c (%) Change from baseline to Week 26 LS Mean (SE) [1, 4]: −0.46 (0.060) %
HbA1c (%) Change from baseline to Week 26 LS Mean (SE) [1, 5]: −0.46%
HbA1c (%) Week 26 Mean (SD) [1, 4]: 7.72 (1.00) %
HbA1c (%) Week 26 Median [1, 4]: 7.60%
HbA1c (%) Week 26 Mean (SD) [1, 5]: 7.72%
LS mean change in HbA1c from baseline to W26 ([1]; CKD3A population): −0.54%
mean HbA1c level reached at W26 ([1]; CKD3A population): 7.62%
LS mean change in HbA1c from baseline to W26 ([1]; CKD3B population): −0.37%
mean HbA1c level reached at W26 ([1]; CKD3B population): 7.82%
glycemic control (reduction in A1C) [2]: significantly improve glycemic control

Source: US20220265690A1, “USE OF SOTAGLIFLOZIN FOR THE TREATMENT OF PATIENTS WITH TYPE 2 DIABETES MELLITUS AND MODERATE RENAL IMPAIRMENT” (Lexicon Pharmaceuticals, Inc., priority 2019, published 2022)
